Values after ≈ are worked out from the molar mass of the structure shown.

This note sets out measurements from US4920128A, “Pyrazolo[3,4-b]quinolines and their use as antiviral agents” (Sterling Drug Inc., priority 1988, dated 1990).

For experiment [1], the system named is herpes simplex virus type 2 (HSV-2). The experiment can be described thus: HSV-2 plaque-reduction on mouse embryo fibroblast monolayers. The class given is cell-based. The conditions noted are these: concentration which inhibited the number of plaques by 50%, interpolated, HSV-2 (Curtis strain), ~80 pfu, 2 days at 37° C.; for IC50: Human alphaherpesvirus 2, Fibroblast, 48 h, read-out: MIC. How it is done: The activity of the compounds of the invention against herpes simplex virus type 2 (HSV-2) was determined by measuring plaque-reduction activity on mouse embryo fibroblast monolayers. Two-day-old monolayers of Balb/c or ICR mouse embryo fibroblasts (MEF) were infected with approximately 80 pfu (plaque forming units) of HSV-2 (Curtis strain) in the presence of various concentrations of the test compounds. After a 1 hour absorption period at 37° C. and 2% CO2, the inoculum was removed and an overlay containing equal parts of 2X MS medium supplemented with 10% fetal calf serum (FSC) and 1% molten Seakem agarose was added to cell monolayers. Both the inocula and the overlay mixtures contained 1:200 dilutions of the test compound made from stock dilutions in dimethylsulfoxide. After incubation at 37° C. and 2% CO2 for 2 days, the monolayers were fixed with 5% glutaraldehyde and stained with 0.25% aqueous crystal violet. The plaques were quantitated by visual inspection. The minimum inhibitory concentration (MIC) for a compound was defined as the concentration in micrograms per milliliter (μg/ml) which inhibited the number of plaques by 50%. The MIC was calculated by interpolation.

Experiment [2] concerns phenylephrine-contracted aortic ring preparation. The experiment can be described thus: vasodilator activity in phenylephrine-contracted aortic ring preparation from the spontaneously hypertensive rat (SHR). The conditions noted are these: 50% of maximal relaxation induced by papaverine (200 μM), contracted with 1 μM phenylephrine. Here is the method: Aortic ring preparations from SHR are suspended in buffered physiological saline and induced to contract by addition of 1 μM phenylephrine, a selective α1 -adrenergic agonist. When a sustained contraction is obtained, the test compound is added cumulatively in ascending concentrations beginning at 1 μM. At the end of the addition of the test compound, a 200 μM concentration of papaverine is added to the organ bath for induction of a 100% vasodilator response. Percent relaxation by the test compound is expressed as a percent of maximal relaxation induced by papaverine. […] By this procedure, EC50 values for certain compounds of the invention were determined with the following results: […]

With `COc1ccc2cc3c(N)nn(C)c3nc2c1` [Example 7, 7-Methoxy-1-methyl-1H-pyrazolo[3,4-b]quinolin-3-amine], in experiment [1], the IC50 turned out to be 6.4 µg/mL (≈ 28 µM). Besides, the EC50 in experiment [2] amounted to 43 µM.
`COc1ccc2nc3c(cc2c1)c(C#N)nn3C` [Example 33, 6-Methoxy-1-methyl-1H-pyrazolo[3,4-b]quinoline-3-carbonitrile]: the IC50 in experiment [1] worked out at 42 µg/mL (≈ 176 µM).
In the case of `CCN(CC)CCn1nc(N)c2cc3cc(OC)ccc3nc21` [Example 16, 1-[2-(Diethylamino)ethyl]-6-methoxy-1H-pyrazolo[3,4-b]quinolin-3-amine], the concentration giving a half-maximal response (EC50) in experiment [2] is 40 µM.
As to `COc1ccc2cc3c(N)nn(CCN4CCOCC4)c3nc2c1` [Example 15, 7-Methoxy-1-[2-(4-morpholinyl)ethyl]-1H-pyrazolo[3,4-b]quinolin-3-amine], the IC50 in experiment [1] was determined as 44 µg/mL (≈ 134 µM).
`COc1ccc2nc3c(cc2c1)c(N)nn3CCN(C)C` [Example 21, 1-[2-(Dimethylamino)ethyl]-6-methoxy-1H-pyrazolo[3,4-b]quinolin-3-amine]: the IC50 in experiment [1] came to 24 µg/mL (≈ 84.1 µM). The molecule further displayed an EC50 in experiment [2] of 38 µM.
For the molecule `COc1ccc2cc3c(N)nn(CC(C)N(C)C)c3nc2c1` (stereo not drawn) [Example 44a, 1-[2-(dimethylamino)-2-methylethyl]-7-methoxy-1H-pyrazolo[3,4-b]quinolin-3-amine], the IC50 in experiment [1] came to 11 µg/mL (≈ 36.7 µM).
As to `COc1ccc2cc3c(N)nn(-c4ccccc4)c3nc2c1` [Example 11, 7-Methoxy-1-phenyl-1H-pyrazolo[3,4-b]quinolin-3-amine], the IC50 in experiment [1] is 19 µg/mL (≈ 65.4 µM).
On to `CCOC(=O)Cn1nc(N)c2cc3ccc(OC)cc3nc21` [Example 19, Ethyl 3-amino-7-methoxy-1H-pyrazolo[3,4-b]quinolin-1-acetate], for which the IC50 in experiment [1] came to 12 µg/mL (≈ 40 µM). In addition, a half-maximal effect in experiment [2] (EC50) was put at 71 µM.
`COc1cc2cc3c(N)n[nH]c3nc2cc1OC` [4(d), 6,7-Dimethoxy-1H-pyrazolo[3,4-b]quinolin-3-amine] came in with a 50% effective concentration (EC50) in experiment [2] of 18 µM.
In the case of `COc1ccc2nc3c(cc2c1)c(Br)nn3CCN(C)C` [Example 36, 3-Bromo-1-[2-(dimethylamino)ethyl]-6-methoxy-1H-pyrazolo[3,4-b]quinoline], the IC50 in experiment [1] stood at 4.3 µg/mL (≈ 12.3 µM).
On to `COc1ccc2cc3c(N)nn(CCN(C)C)c3nc2c1` [Example 18, 1-[2-(Dimethylamino)ethyl]-7-methoxy-1H-pyrazolo[3,4-b]quinolin-3-amine], for which, in experiment [1], the IC50 worked out at 12 µg/mL (≈ 42.1 µM). For the same molecule, a half-maximal effect in experiment [2] (EC50) was put at 25 µM.
Consider `COc1ccc2cc3c(N)nn(CN(C)C)c3nc2c1` [Example 30, 1-[(Dimethylamino)methyl]-7-methoxy-1H-pyrazolo[3,4-b]quinolin-3-amine], for which, in experiment [1], the IC50 amounted to 2.6 µg/mL (≈ 9.58 µM).
As for `Nc1n[nH]c2nc3cc(O)ccc3cc12` [Example 13, 3-Amino-1H-pyrazolo[3,4-b]quinolin-7-ol], the IC50 in experiment [1] stood at 13 µg/mL (≈ 64.9 µM). In experiment [2], this molecule registered an EC50 of 87 µM.
Consider `COc1ccc2cc3c(N)n[nH]c3nc2c1` [3(d), 7-Methoxy-1H-pyrazolo[3,4-b]quinolin-3-amine], for which, in experiment [1], the IC50 came out at 4.3 µg/mL (≈ 20.1 µM). The molecule further yielded a 50% effective concentration (EC50) in experiment [2] of 21 µM.
In the case of `COc1ccc2nc3c(cc2c1)c(N)nn3CCCN(C)C` [Example 17, 1-[3-(Dimethylamino)propyl]-6-methoxy-1H-pyrazolo[3,4-b]quinolin-3-amine], the IC50 in experiment [1] worked out at 78 µg/mL (≈ 261 µM). For the same molecule, the EC50 in experiment [2] worked out at 91 µM.
In the case of `COc1ccc2nc3c(cc2c1)c(C(N)=O)nn3C` [Example 35, 6-Methoxy-1-methyl-1H-pyrazolo[3,4-b]quinoline-3-carboxamide], the IC50 in experiment [1] was determined as 7 µg/mL (≈ 27.3 µM). The molecule also showed an EC50 in experiment [2] of 9 µM.
In the case of `COC(=O)c1nn(CCN(C)C)c2nc3cc(OC)ccc3cc12` [Example 39, Methyl 1-[2-(dimethylamino)ethyl]-7-methoxy-1H-pyrazolo[3,4-b]quinoline-3-carboxylate], the IC50 in experiment [1] amounted to 2.3 µg/mL (≈ 7 µM).
`COc1ccc2cc3c(Br)nn(CCN(C)C)c3nc2c1` [Example 37, 3-Bromo-1-[2-(dimethylamino)ethyl]-7-methoxy-1H-pyrazolo[3,4-b]quinoline]: in experiment [1], the IC50 was 0.97 µg/mL (≈ 2.78 µM).
Same read-out and setting: for `CNCCn1nc(N)c2cc3cc(OC)ccc3nc21` [Example 27, 1-[2-(Methylamino)ethyl]-6-methoxy-1H-pyrazolo[3,4-b]quinolin-3-amine] the value was 13 µg/mL (≈ 47.9 µM).
`COc1ccc2nc3[nH]nc(N)c3cc2c1` [1(d), 6-Methoxy-1H-pyrazolo[3,4-b]quinolin-3-amine]: in experiment [1], the IC50 worked out at 1.5 µg/mL (≈ 7 µM). This molecule registered a concentration giving a half-maximal response (EC50) in experiment [2] of 31 µM.
With `CNC(C)Cn1nc(Cl)c2cc3ccc(OC)cc3nc21` (stereo not drawn) [Example 46, 3-Chloro-1-[2-(methylamino)-2-methylethyl]-7-methoxy-1H-pyrazolo[3,4-b]quinoline], the IC50 in experiment [1] turned out to be 3.7 µg/mL (≈ 12.1 µM).
Regarding `Nc1n[nH]c2nc3ccc(O)cc3cc12` [Example 14, 3-Amino-1H-pyrazolo[3,4-b]quinolin-6-ol], a half-maximal effect in experiment [2] (EC50) was put at 25 µM.
`CCN(CC)CCn1nc(N)c2cc3ccc(O)cc3nc21` [Example 23]: the IC50 in experiment [1] was 39 µg/mL (≈ 130 µM). This molecule also had an EC50 in experiment [2] of 33 µM.
Regarding `CCNCCn1nc(N)c2cc3ccc(OC)cc3nc21` [Example 29, 1-[2-(Ethylamino)ethyl]-7-methoxy-1H-pyrazolo[3,4-b]quinolin-3-amine], the IC50 in experiment [1] was determined as 6.7 µg/mL (≈ 23.5 µM).
`COc1ccc2nc3c(cc2c1)c(N)nn3CC(=O)N(C)C` [Example 25, 3-Amino-6-methoxy-N,N-dimethyl-1H-pyrazolo[3,4-b]quinolin-1-acetamide] registered an EC50 in experiment [2] of 116 µM.
Consider `CCOc1ccc2cc3c(N)n[nH]c3nc2c1` [5(d), 7-Ethoxy-1H-pyrazolo[3,4-b]quinolin-3-amine], for which, in experiment [1], the IC50 was 17 µg/mL (≈ 74.5 µM).
`CNCCn1nc(Br)c2cc3ccc(OC)cc3nc21` [Example 41, 3-Bromo-7-methoxy-1-(2-methylaminoethyl)-1H-pyrazolo[3,4-b]quinoline]: in experiment [1], the IC50 is 0.72 µg/mL (≈ 2.15 µM).
With `CN(C)CCn1nc(N)c2cc3ccc(O)cc3nc21` [Example 24, 3-Amino-1-[2-(dimethylamino)ethyl]-1H-pyrazolo[3,4-b]quinolin-7-ol], the IC50 in experiment [1] was 13 µg/mL (≈ 47.9 µM).
For the molecule `CCN(CC)CCn1nc(N)c2cc3ccc(OC)cc3nc21` [Example 22, 1-[2-(Diethylamino)ethyl]-7-methoxy-1H-pyrazolo[3,4-b]quinolin-3-amine], the IC50 in experiment [1] was found to be 23 µg/mL (≈ 73.4 µM). In experiment [2], this molecule registered an EC50 of 22 µM.
`COc1ccc2nc3c(cc2c1)c(Cl)nn3C` [Example 31, 3-Chloro-6-methoxy-1-methyl-1H-pyrazolo[3,4-b]quinoline]: in experiment [1], the IC50 was determined as 18 µg/mL (≈ 72.7 µM).
On to `CCNC(=O)Cn1nc(N)c2cc3ccc(OC)cc3nc21` [Example 28, 3-Amino-7-methoxy-N-ethyl-1H-pyrazolo[3,4-b]quinolin-1-acetamide], for which, in experiment [2], the EC50 amounted to 70 µM.
Regarding `Nc1n[nH]c2nc3ccccc3cc12` [2(d), 1H-Pyrazolo[3,4-b]quinolin-3-amine], in experiment [2], the EC50 came out at 26 µM. This EC50 lies about 2.7-fold lower than the previous one.
The molecule `Cn1nc(N)c2cc3ccc(O)cc3nc21` [Example 12, 3-Amino-1-methyl-1H-pyrazolo[3,4-b]quinolin-7-ol] came in with an EC50 in experiment [2] of 57 µM. Against the preceding molecule, the EC50 is about 2.2-fold higher.
In the case of “7-Methoxy-1-methyl-1H-pyrazolo[3,4-b]quinoline-3-methanamine [Example 34]”, the MIC in experiment [1] is 15 µg/mL.
As to `CCn1nc(N)c2cc3ccc(OC)cc3nc21` [Example 10, 1-Ethyl-7-methoxy-1H-pyrazolo[3,4-b]quinolin-3-amine], the IC50 in experiment [1] came out at 7.8 µg/mL (≈ 32.2 µM).
Take `COc1ccc2cc3c(Cl)nn(CC(C)N(C)C)c3nc2c1` (stereo not drawn) [Example 45, 3-Chloro-1-[2-(dimethylamino)-2-methylethyl]-7-methoxy-1H-pyrazolo[3,4-b]quinoline]: the IC50 in experiment [1] is 0.88 µg/mL (≈ 2.76 µM).
Same read-out and setting: for `CCCn1nc(N)c2cc3ccc(OC)cc3nc21` [Example 9, 7-Methoxy-1H-1-propylpyrazolo[3,4-b]quinolin-3-amine] the value was 5.3 µg/mL (≈ 20.7 µM).
As to `COc1ccc2cc3c(C#N)nn(CCN(C)C)c3nc2c1` [Example 38, 1[2-(Dimethylamino)ethyl]-7-methoxy-1H-pyrazolo[3,4-b]quinoline-3-carbonitrile], in experiment [1], the IC50 amounted to 0.82 µg/mL (≈ 2.78 µM).
As for `COc1cccc2nc3[nH]nc(N)c3cc12` [6(d), 5-Methoxy-1H-pyrazolo[3,4-b]quinolin-3-amine], in experiment [1], the IC50 stood at 13 µg/mL (≈ 60.7 µM).
Turning to `COc1ccc2cc3c(Cl)nn(CCN(C)C)c3nc2c1` [Example 40, 3-Chloro-1-(2-dimethylaminoethyl)-7-methoxy-1H-pyrazolo[3,4-b]quinoline], in experiment [1], the IC50 is 0.67 µg/mL (≈ 2.2 µM).

What is called EC50 is the concentration giving half of the maximal effect. A low value points to higher potency in that assay.
